Experimental data from US20050019746A1, “Apoptosis-related kinase/GPCRs” (EiRx Therapeutics Limited, priority 2003, published 2005).

Legend:
U251 cells = assay: 10-14 day Clonagenicity Assay (MTT), U251; type: cell-based, human; conditions: U251, clonagenicity assay, dilution point of maximum toxicity; for percentage survival relative to the missense, n = 1: independent experiment n = 1; for percentage survival relative to the missense, n = 2: independent experiment n = 2; for percentage survival relative to the missense, n = 3: independent experiment n = 3
Text: The Clonagenicity Assay represents a Cell Viability Screen that allows assessment of a cytotoxic insult at a variety of seed densities of cancer cell lines over an extended period of logarithmic growth, such that the definitive effect of the test substance can be accurately quantified. In this instance, the ‘cytotoxic insult’ to be tested involves the transfection of siRNA Oligomers to knockdown the expression of novel target Kinases and GPCRs as outlined previously. Cell number is quantified 10-14 days post siRNA transfection by MTT conversion as described in detail in Example 6.
The Clonagenicity Assay is optimised for each cell line examined with respect to seed number. The seed number varies for each cell line and accounts for the differences in cell size, growth rate and sensitivity to transfection-induced toxicity for each cell line pursued. Cells lines given as models for this example include HCT15, MCF7, A549, SKOV3, DU145, U251, PC3, A498 and HeLa. The siRNA oligo to Survivin serves as a positive control for toxicity in this assay and the missense control oligomer acts as a negative control as described in detail in Examples 5 and 6. The c-Raf, BCL2 and PI3K siRNA oligomers serve as additional controls as previously mentioned. The Clonagenicity assay is performed as outlined below.
Cells are seeded into a 96-well plate as described below and allowed to adhere overnight at 37° C. in a humidified atmosphere containing 5% CO2 in air. Wells are seeded with an appropriate cell number (cell line dependent) in Column 1 of the 96 well plates and this cell suspension is diluted 1 in 2 across the 96 well plates from Column 1 through to 6 (represented on the x-axis in results). Cells are next transfected with siRNA Oligomers, at a concentration of 2 μg/ml, against the genes of interest. Transfections continue for 4 hrs after which the transfection solution is removed and cells are refed with fresh medium and allow to incubate overnight. An additional media change@24 hrs post transfection is made to minimise toxicity of the transfection reagent. Cells are subsequently incubated for a 10-14 Day period post transfection at a 37° C. incubation as described above. Medium is renewed weekly following which MTT quantification is performed as described in Example 5.
Note seed density decreases from 3.5 to 0.1×10^3 cells on the x-axis and the y-axis represents cell number as quantified by MTT conversion, 10-14 days post transfection. This decrease is substantially greater that with the apoptosis gene, Survivin. […] Note seed density decreases from 3.5 to 0.1×10^3 cells on the x-axis and the y-axis represents cell number as quantified by MTT conversion, 10-14 days post transfection.
To be considered cytotoxic, the siRNA Oligo against the gene target must induce a decreased viability in a cell line across at least 2 seed densities in the clonagenicity assay, such that a significant difference between the target gene and MS is observed i.e. no crossing of the Standard Error bars is detected. The average percentage viability, relative to missense, is recorded for the dilution point at which Maximum Toxicity is induced is recorded in Table 13.
Table 13 Clonagenicity Assay—This table gives the average percentage survival of the indicated cell lines relative to the missense in a clonagenicity assay, over 3 independent experiments. As an internal reference, the known survival gene ‘Survivin’, BCL2, c-Raf and PI3KR1 was also targeted by siRNA. When no Cytotoxic response is detected ‘-’ is recorded.

[1] = system: target gene mRNA in U251 cells; assay: Knockdown by RNAi, QPCR, U251 cells; type: cell-based, human; conditions: U251, 24 hrs post transfection, relative to missense control
Procedure: These siRNA oligos are initially tested for efficacy in a cell line in which the gene is expressed for example in the Hela, U251, TF1 or DU145 cell lines. Cells are plated at a density of between 7.5-10×10^4 in each well of a 6 well plate and incubated at 37° C. overnight in DMEM culture medium (1× Dulbeccos modified Eagles medium (Sigma D2554), 0.004% folic acid, 4 mM L-glutamine, 0.37% sodium bicarbonate, 0.1 mM sodium pyruvate) containing 10% fetal calf serum (FCS). 2 μg of duplex siRNA is transfected into cells using DMRIE-C reagent (Invitrogen 10459-014) according to methods described in U.S. Patent Application No. 60/498,488. In brief, to prepare 1 ml of a transfection solution 2 μg of siRNA duplex in added to 1 ml of Optimem (Gibco), to which 8 μl of DMRIE C reagent is added. Transfection mix is added directly to the cells and incubated for 4 hrs at 37° C. Post this 4 hr incubation, transfection solution is removed and cells are refed with fresh culture medium and incubated for a further 24 hrs. An additional medium change is required at this point to minimise toxicity of the transfection procedure. Cells are harvested at 24 or 48 hrs post transfection for analysis of mRNA expression. […]
After DMRIE transfections with siRNA Oligos against the apoptosis associated genes identified herein, or controls, cells are harvested at 24 or 48 hours post transfection as stated previously. […] RNA is quantified by spectrophotometric analysis and 1 μg is reverse transcribed into cDNA using SuperScriptII RNAseH-Reverse Transcriptase (Invitrogen 18064-014). […] QPCR primers are designed to amplify a PCR product of approximately 100 to 300 nucleotides in length from the CDS, following the guidelines outlined in the Quantitect SYBR Green PCR handbook from Qiagen.
Two template standards are used for quantitative PCR assessment of mRNA levels: • 1. A control RPS13 i.e. Ribosomal Protein Sub unit 13 (NM_001017) amplified PCR product diluted to [1000,100,10,1 and 0.1 fg] respectively, used to quantify the level of transcript; • 2. […]

Row | Substance | percentage survival relative to the missense, n = 1 (U251 cells) [%] | percentage survival relative to the missense, n = 2 (U251 cells) [%] | percentage survival relative to the missense, n = 3 (U251 cells) [%] | % Knockdown by RNAi, U251 [1] [%]
1 | siRNA EKI: siRNA duplex, sense GCACUGGAUCCAAAGCAUGtt, antisense CAUGCUUUGGAUCCAGUGCtt; same in Tables 9 and 11 (sense GCACUGGAUCCAAAGCAUGTT; antisense CAUGCUUUGGAUCCAGUGCTT; chemistry not given here) | 62.3 |  |  | 
2 | siRNA FLT4: sense GUACGGCAACCUCUCCAACtt, antisense GUUGGAGAGGUUGCCGUACtt (sense GUACGGCAACCUCUCCAACTT; antisense GUUGGAGAGGUUGCCGUACTT; chemistry not given here) |  | 63 | 30.9 | 
3 | siRNA MAK: sense GAAGCCAAGCAUGGGUGUUtt, antisense AACACCCAUGCUUGGCUUCtt (sense GAAGCCAAGCAUGGGUGUUTT; antisense AACACCCAUGCUUGGCUUCTT; chemistry not given here) | 11.5 | 49.1 | 58.7 | 
4 | siRNA MAPKK5: sense GAGGACAGGUUAAGCUGUGtt, antisense CACAGCUUAACCUGUCCUCtt (sense GAGGACAGGUUAAGCUGUGTT; antisense CACAGCUUAACCUGUCCUCTT; chemistry not given here) | 44.8 | 51.4 | 12.4 | 
5 | siRNA MKNK: sense UACAUGGCCCCUGAGGUAGtt, antisense CUACCUCAGGGGCCAUGUAtt (sense UACAUGGCCCCUGAGGUAGTT; antisense CUACCUCAGGGGCCAUGUATT; chemistry not given here) | 33.6 | 59.5 | 69 | 
6 | siRNA NTKL: siRNA duplex, sense UGUGGAGCUGAUGAAGCACtt, antisense GUGCUUCAUCAGCUCCACAtt; same in Tables 9 and 11 (sense UGUGGAGCUGAUGAAGCACTT; antisense GUGCUUCAUCAGCUCCACATT; chemistry not given here) | 9.5 | 20.9 | 17.1 | 37
7 | siRNA P14KB: sense GCUACGGAAGCUGAUCCUCtt, antisense GAGGAUCAGCUUCCGUAGCtt (sense GCUACGGAAGCUGAUCCUCTT; antisense GAGGAUCAGCUUCCGUAGCTT; chemistry not given here) | 12.3 | 65 | 28.3 | 36
8 | siRNA PCTAIRE: sense GUCAGUGCCCACAAAGACUtt, antisense AGUCUUUGUGGGCACUGACtt (sense GUCAGUGCCCACAAAGACUTT; antisense AGUCUUUGUGGGCACUGACTT; chemistry not given here) | 24.2 | 42.7 | 1.6 | 
9 | siRNA PSKH1: sense GAACCUGCACCGCUCCAUAtt, antisense UAUGGAGCGGUGCAGGUUCtt (sense GAACCUGCACCGCUCCAUATT; antisense UAUGGAGCGGUGCAGGUUCTT; chemistry not given here) | 60.5 |  | 56.9 | 
10 | siRNA ROCK: siRNA duplex, sense UACAUGCCUGGUGGAGAUCtt, antisense GAUCUCCACCAGGCAUGUAtt; same in Tables 9 and 11 (sense UACAUGCCUGGUGGAGAUCTT; antisense GAUCUCCACCAGGCAUGUATT; chemistry not given here) | 13.8 | 58.2 | 19.8 | 
11 | siRNA Survivin: positive control siRNA, sense GAACUGGCCCUUCUUGGAGtt, antisense CUCCAAGAAGGGCCAGUUCtt (sense GAACUGGCCCUUCUUGGAGTT; antisense CUCCAAGAAGGGCCAGUUCTT; chemistry not given here) [reference compound] | 45.9 | 64.6 | 76.4 | 47
